Measurements taken from publication PMC7449411, “In silico discovery and biological validation of ligands of FAD synthase, a promising new antimicrobial target” (PLoS Computational Biology, 2020).

Assays:
[1] = molecular target: T1, FMNAT activity of CaFADS (Corynebacterium ammoniagenes, UniProt Q59263); experiment: Inhibition of the FMNAT activity of CaFADS; assay type: biochemical; details: residual activity at 250 μM of compound, 25 °C
T1 construct: made in house; host or cells: Escherichia coli BL21(DE3)
Description: (§1) To determine the compound’s ability to inhibit the RFK and/or the FMNAT activities of CaFADS, both enzymatic activities were quantitatively measured in the absence and presence of the compounds following previously described protocols. Reaction mixtures contained 50 μM ATP, 5 μM RF in 20 mM PIPES, pH 7.0, 0.8 mM MgCl2, when assaying the RFK activity, and 50 μM ATP, 10 μM FMN in 20 mM PIPES, pH 7.0, 10 mM MgCl2 when measuring the FMNAT reaction. Each compound was tested at 250 μM (0.5% residual final concentration of DMSO) for each of the two enzymatic reactions. The samples were pre-incubated at 25 °C, the reaction was then initiated by the addition of ∼ 40 nM CaFADS (final concentration) and allowed for 1 min. Finally, the reaction was stopped by boiling the samples for 5 min and the denatured protein was eliminated through centrifugation. The transformation of RF into FMN and FAD (RFK activity) and of FMN into FAD (FMNAT activity) was evaluated through flavins separation by HPLC (Waters), as previously described. All the experiments were performed in triplicate. To evaluate the potency of compounds as inhibitors, we took advantage of the decrease in quantum yield of fluorescence when FMN is transformed into FAD, which allows to follow such transformation in a continuous system. Measurements were carried out using a microplate reader Synergy HT multimode plate reader (Biotek) with BRAND 96-well plates pure Grade. Reaction mixtures contained 5 μM RF or FMN, and 50 μM ATP in 20 mM PIPES, pH 7.0, 10 mM MgCl2, and the inhibitor compound in a 5-250 μM concentration range (2% residual final concentration of DMSO). Reactions were initiated through addition of 0.4 μM CaFADS, being the final reaction volume 100 μL. Flavin fluorescence (excitation at 440 nm and emission at 530 nm) was registered at 25 °C, every 50 s during 15 min. The fluorescence change per time unit (ΔF/Δt) was calculated as the slope of the resulting fluorescence decays recorded between 0 and 6 min (linear decay of the fluorescence). Controls which contained the reaction mixture without the enzyme and without any potential CaFADS inhibitory compound were included in the assay and referred as the 0% and 100% of enzymatic activity, respectively. IC50 was calculated as the concentration of compound required for a 50% inhibition of the enzymatic activity.

[2] = molecular target: T2, RFK+FMNAT CaFADS activities (Corynebacterium ammoniagenes, UniProt Q59263); experiment: Inhibition of the RFK+FMNAT activity of CaFADS; assay type: biochemical; details: residual activity at 250 μM of compound, 25 °C
T2 construct: made in house; host or cells: Escherichia coli BL21(DE3)
Description: as §1

[3] = tested on: C. ammoniagenes; experiment: MIC, resazurin broth microdilution; assay type: cell-based, Corynebacterium ammoniagenes; details: C. ammoniagenes
[4] = tested on: C. glutamicum; experiment: MIC, resazurin broth microdilution; assay type: cell-based, Corynebacterium glutamicum; details: media BHI
[5] = tested on: C. diphteriae; experiment: MIC, resazurin broth microdilution; assay type: cell-based, Corynebacterium diphteriae
[6] = tested on: M. tuberculosis; experiment: MIC, resazurin broth microdilution; assay type: cell-based, Mycobacterium tuberculosis; details: M. tuberculosis, media 7H9G-ADC
[7] = tested on: E. coli; experiment: MIC, resazurin broth microdilution; assay type: cell-based, Escherichia coli; details: media LB
[8] = tested on: L. monocytogenes; experiment: MIC, resazurin broth microdilution; assay type: cell-based, Listeria monocytogenes; details: media BHI
[9] = tested on: P. aeruginosa; experiment: MIC, resazurin broth microdilution; assay type: cell-based, Pseudomonas aeruginosa; details: media MH
[10] = tested on: S. thyphimurium; experiment: MIC, resazurin broth microdilution; assay type: cell-based, Salmonella thyphimurium; details: media MH
[11] = tested on: S. aureus; experiment: MIC, resazurin broth microdilution; assay type: cell-based, Staphylococcus aureus; details: media MH
[12] = tested on: M. smegmatis; experiment: MIC, resazurin broth microdilution; assay type: cell-based, Mycobacterium smegmatis; details: media 7H9G-ADC
[13] = tested on: S. pneumoniae; experiment: MIC, resazurin broth microdilution; assay type: cell-based, Streptococcus pneumoniae
[14] = molecular target: T3, CaFADS (Corynebacterium ammoniagenes, UniProt Q59263); experiment: Differential scanning fluorescence (thermal denaturation) binding to CaFADS; details: 2 μM CaFADS, compound up to 250 μM
T3 construct: made in house; host or cells: Escherichia coli BL21(DE3)
Description: Interaction of compounds with CaFADS was evaluated using fluorescence thermal denaturation, on the bases of the shifts in denaturation midpoints of thermal curves of the protein [65]. Denaturations were performed in a Stratagene Agilent Mx3005p qPCR instrument (Santa Clara, US) following SYPR Orange (ThermoFisher Scientific) emission fluorescence (excitation at 492 nm and emission at 610 nm), which greatly increases when this probe binds to protein hydrophobic regions becoming solvent exposed upon thermal unfolding. Solutions containing 2 μM CaFADS with the studied compound in an increasing 5-250 μM concentration range (2% residual final concentration of DMSO) and 5xSYPR Orange in 20 mM PIPES pH 7.0, 10 mM MgCl2, with a 100 μL total volume were dispensed into 96-well microplates (BRAND 96-well plates pure grade™). After an initial 1 min incubation at 25 °C within the equipment, unfolding curves were registered from 25 to 100 °C at 1 °C·min^−1. Control experiments with CaFADS samples with/without DMSO were routinely performed in each microplate. For those compounds shifting midpoint denaturation temperature, Tm, the dissociation constant, Kd, was predicted by fitting the data to the equation [66] ΔTm/Tm=NRTm0/ΔH0ln(1+[L]/Kd), (2) which estimates the extent of the ligand-induced protein stabilization/destabilization. ΔTm=|Tm-Tm0| with Tm0 and Tm being the midpoint denaturation temperatures in the absence and the presence of ligand, respectively, and ΔH0 the unfolding enthalpy of the protein in the absence of ligand.

T2 sequence (Q59263 whole entry): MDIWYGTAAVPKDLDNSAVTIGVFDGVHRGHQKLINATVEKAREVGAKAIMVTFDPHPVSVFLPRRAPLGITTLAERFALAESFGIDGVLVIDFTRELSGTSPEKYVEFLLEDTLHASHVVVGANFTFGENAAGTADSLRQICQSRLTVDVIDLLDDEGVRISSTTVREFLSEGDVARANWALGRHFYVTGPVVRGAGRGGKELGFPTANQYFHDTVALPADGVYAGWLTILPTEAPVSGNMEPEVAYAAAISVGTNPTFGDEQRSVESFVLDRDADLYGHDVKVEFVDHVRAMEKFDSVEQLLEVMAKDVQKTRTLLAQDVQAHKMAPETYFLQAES
T1 sequence (Q59263 whole entry): as above
T3 sequence (Q59263 whole entry): as above

O=C(NCCNc1ccc(C(F)(F)F)cc1[N+](=O)[O-])c1cccnc1Oc1ccccc1 [Compound C26, N-{2-[2-nitro-4-(trifluoromethyl)anilino]ethyl}-2-phenoxynicotinamide]
FMNAT % Res. act. 250 μM [1]: 72 ± 6% | RFK+FMNAT % Res. act. 250 μM [2]: 84 ± 4% | MIC ([3]; media MH): > 256 µM | MIC ([3]; media MH+DFO): > 256 µM | MIC ([3]; media MH+DIP): > 256 µM | MIC ([3]; media MH+DIP+DFO): > 256 µM | MIC [4]: > 256 µM | MIC ([5]; media MH): > 256 µM | MIC [6]: > 256 µM | MIC [7]: > 256 µM | MIC [8]: > 256 µM | MIC [9]: > 256 µM | MIC [10]: > 256 µM | MIC [11]: > 256 µM

COc1ccc(NC(=O)CC(CC(=O)O)c2cc(OC)c(OC)c(OC)c2)cc1 (stereo not shown) [Compound C11, 5-(4-methoxyanilino)-5-oxo-3-(3,4,5-trimethoxyphenyl)pentanoic acid]
MIC ([3]; media BHI): > 64 µM | MIC ([3]; media MH): > 256 µM | MIC ([3]; media MH+DFO): > 256 µM | MIC ([3]; media MH+DIP): > 256 µM | MIC ([3]; media MH+DIP+DFO): > 256 µM | MIC [4]: > 64 µM | MIC ([5]; media BHI): > 64 µM | MIC ([5]; media MH): > 256 µM | MIC [6]: > 256 µM | MIC [12]: > 256 µM | MIC ([13]; media BHI): > 256 µM | MIC ([13]; media MH): > 256 µM | MIC [7]: > 64 µM | MIC [8]: > 64 µM | MIC [9]: > 256 µM | MIC [10]: > 256 µM | MIC [11]: > 256 µM

CC1=C(C)CC(C(=O)Nc2ccc(Oc3ccc(Cl)cc3)cc2)C(C(=O)O)C1 (stereo not shown) [Compound C12, 6-{[4-(4-chlorophenoxy)anilino]carbonyl}-3,4-dimethylcyclohex-3-ene-1-carboxylic acid]
Tm shift of CaFADS thermal denaturation [14]: neither binder nor inhibitor | MIC ([3]; media MH): > 256 µM | MIC ([3]; media MH+DFO): > 256 µM | MIC ([3]; media MH+DIP): > 256 µM | MIC ([3]; media MH+DIP+DFO): > 256 µM | MIC [4]: > 256 µM | MIC ([5]; media MH): > 256 µM | MIC [6]: > 256 µM | MIC [7]: > 256 µM | MIC [8]: > 256 µM | MIC [9]: > 256 µM | MIC [10]: > 256 µM | MIC [11]: > 256 µM

N#Cc1ccc(C=NNC(=O)c2cnn(-c3ccc([N+](=O)[O-])cc3)c2C(F)(F)F)cc1 [Compound C10, N'-[(4-cyanophenyl)methylene]-1-(4-nitrophenyl)-5-(trifluoromethyl)-1H-pyrazole-4-carbohydrazide]
MIC ([3]; media BHI): > 64 µM | MIC ([3]; media MH): > 256 µM | MIC ([3]; media MH+DFO): > 256 µM | MIC ([3]; media MH+DIP): > 256 µM | MIC ([3]; media MH+DIP+DFO): > 256 µM | MIC [4]: > 64 µM | MIC ([5]; media BHI): > 64 µM | MIC ([5]; media MH): > 256 µM | MIC [6]: > 256 µM | MIC [12]: > 256 µM | MIC ([13]; media BHI): > 256 µM | MIC ([13]; media MH): > 256 µM | MIC [7]: > 64 µM | MIC [8]: > 64 µM | MIC [9]: > 256 µM | MIC [10]: > 256 µM | MIC [11]: > 256 µM

Cc1ccc(OCC2SCCN2C(=O)c2c(-c3c(Cl)cccc3Cl)noc2C)c([N+](=O)[O-])c1 (stereo not shown) [Compound C25, [3-(2,6-dichlorophenyl)-5-methylisoxazol-4-yl]{2-[(4-methyl-2-nitrophenoxy)methyl]-1,3-thiazolan-3-yl}methanone]
MIC ([3]; media MH): > 256 µM | MIC ([3]; media MH+DFO): > 256 µM | MIC ([3]; media MH+DIP): > 256 µM | MIC ([3]; media MH+DIP+DFO): > 256 µM | MIC [4]: > 256 µM | MIC ([5]; media MH): > 256 µM | MIC [6]: > 256 µM | MIC [7]: > 256 µM | MIC [8]: > 256 µM | MIC [9]: > 256 µM | MIC [10]: > 256 µM | MIC [11]: > 256 µM

NS(=O)(=O)c1ccc(NC(=O)CC(CC(=O)O)c2ccccc2)cc1 (stereo not shown) [Compound C17, 5-[4-(aminosulfonyl)anilino]-5-oxo-3-phenylpentanoic acid]
MIC ([3]; media MH): > 256 µM | MIC ([3]; media MH+DFO): > 256 µM | MIC ([3]; media MH+DIP): > 256 µM | MIC ([3]; media MH+DIP+DFO): > 256 µM | MIC [4]: > 256 µM | MIC ([5]; media MH): > 256 µM | MIC [6]: > 256 µM | MIC [7]: > 256 µM | MIC [8]: > 256 µM | MIC [9]: > 256 µM | MIC [10]: > 256 µM | MIC [11]: > 256 µM

O=C(O)C(=Cc1ccc2c(c1)OCO2)NC(=O)c1ccccc1 [Compound C14, 3-(1,3-benzodioxol-5-yl)-2-(benzoylamino)acrylic acid]
MIC ([3]; media BHI): > 64 µM | MIC ([3]; media MH): > 256 µM | MIC ([3]; media MH+DFO): > 256 µM | MIC ([3]; media MH+DIP): > 256 µM | MIC ([3]; media MH+DIP+DFO): > 256 µM | MIC [4]: > 64 µM | MIC ([5]; media BHI): > 64 µM | MIC ([5]; media MH): > 256 µM | MIC [6]: > 256 µM | MIC [12]: > 256 µM | MIC ([13]; media BHI): > 256 µM | MIC ([13]; media MH): > 256 µM | MIC [7]: > 64 µM | MIC [8]: > 64 µM | MIC [9]: > 256 µM | MIC [10]: > 256 µM | MIC [11]: > 256 µM

N#CC(=Cc1cccc([N+](=O)[O-])c1)c1nn(-c2ccccc2)c(-n2cccc2)c1C#N [Compound C8, 3-[1-cyano-2-(3-nitrophenyl)vinyl]-1-phenyl-5-(1H-pyrrol-1-yl)-1H-pyrazole-4-carbonitrile]
MIC ([3]; media BHI): > 64 µM | MIC ([3]; media MH): > 256 µM | MIC ([3]; media MH+DFO): > 256 µM | MIC ([3]; media MH+DIP): > 256 µM | MIC ([3]; media MH+DIP+DFO): > 256 µM | MIC [4]: > 64 µM | MIC ([5]; media BHI): > 64 µM | MIC ([5]; media MH): > 256 µM | MIC [6]: > 256 µM | MIC [12]: > 256 µM | MIC ([13]; media BHI): > 256 µM | MIC ([13]; media MH): > 256 µM | MIC [7]: > 64 µM | MIC [8]: > 64 µM | MIC [9]: > 256 µM | MIC [10]: > 256 µM | MIC [11]: > 256 µM

O=C(O)CC(CC(=O)Nc1ccc2ccccc2n1)c1ccccc1 (stereo not shown) [Compound C4, 5-oxo-3-phenyl-5-(2-quinolinylamino)pentanoic acid]
MIC ([3]; media BHI): > 64 µM | MIC ([3]; media MH): > 256 µM | MIC ([3]; media MH+DFO): > 256 µM | MIC ([3]; media MH+DIP): > 256 µM | MIC ([3]; media MH+DIP+DFO): > 256 µM | MIC [4]: > 64 µM | MIC ([5]; media BHI): > 64 µM | MIC ([5]; media MH): > 256 µM | MIC [6]: > 256 µM | MIC [12]: > 256 µM | MIC ([13]; media BHI): > 256 µM | MIC ([13]; media MH): > 256 µM | MIC [7]: > 64 µM | MIC [8]: > 64 µM | MIC [9]: > 256 µM | MIC [10]: > 256 µM | MIC [11]: > 256 µM
